The results in this text go back to US20250171437A1 (Agios Pharmaceuticals,Inc., priority 2022, published 2025).

What is called AC50 is the concentration at which the activity in the assay is half-maximal.

Each structure is given as a SMILES string. A value given as a limit tells only on which side of the number the result lay.

The target of the assay is T1, human PAH with the R408W mutation (A375 R408W cells) (Homo sapiens, UniProt P00439, R408W).
T1 construct: expressed in transfected cells
T1 sequence (P00439 1-452 R408W): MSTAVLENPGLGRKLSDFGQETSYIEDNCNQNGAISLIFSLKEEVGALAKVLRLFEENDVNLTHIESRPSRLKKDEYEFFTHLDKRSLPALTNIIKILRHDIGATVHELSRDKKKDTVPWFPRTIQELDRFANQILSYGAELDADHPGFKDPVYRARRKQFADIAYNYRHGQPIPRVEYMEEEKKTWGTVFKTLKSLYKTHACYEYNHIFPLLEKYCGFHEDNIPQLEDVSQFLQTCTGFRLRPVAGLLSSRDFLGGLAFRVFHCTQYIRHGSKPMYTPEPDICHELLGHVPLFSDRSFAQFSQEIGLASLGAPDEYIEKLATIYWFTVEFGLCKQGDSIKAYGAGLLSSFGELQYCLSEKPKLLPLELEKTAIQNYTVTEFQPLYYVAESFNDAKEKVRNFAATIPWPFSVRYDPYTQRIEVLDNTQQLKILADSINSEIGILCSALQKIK
Kind of assay: Cell Based Phenylalanine Flux Assay. The conditions noted are these: A375 R408W cells; 24 hrs with compound, then 20 μM sepiapterin and 800 μM 13C9,15N-Phenylalanine for 4 hours; 13C-Tyrosine by LC-MS; average where tested multiple times. The essentials: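 A375 cells stably expressing lentiviral human PAH R408W were treated with compounds (10-point 2-fold dilutions, 0.5% DMSO, duplicate) for 24 h at 37 °C. Then 20 μM sepiapterin and 800 μM 13C9,15N-Phe were added for 4 h; media 13C-Tyr was measured by LC-MS to give AC50.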
`CC(C)(O)c1nc(C(F)F)c(C(=O)N2CCc3[nH]cnc3[C@@H]2c2nc3cc(Cl)cc(F)c3o2)o1` [Example 606, (R)-(4-(5-chloro-7-fluorobenzo[d]oxazol-2-yl)-6,7-dihydro-1H-imidazo[4,5-c]pyridin-5(4H)-yl)(4-(difluoromethyl)-2-(2-hydroxypropan-2-yl)oxazol-5-yl)methanone]: the AC50 was not above 500 nM.
Under `O=C(c1ocnc1C(F)F)N1CCc2[nH]cnc2[C@@H]1c1nc2cc(Cl)cc(F)c2o1` [Example 607, (R)-(4-(5-chloro-7-fluorobenzo[d]oxazol-2-yl)-6,7-dihydro-1H-imidazo[4,5-c]pyridin-5(4H)-yl)(4-(difluoromethyl)oxazol-5-yl)methanone] stands not above 500 nM; under `O=C(c1ocnc1C(F)F)N1CCc2[nH]cnc2[C@H]1c1nc2cc(Cl)cc(F)c2o1` [Example 608, (S)-(4-(5-chloro-7-fluorobenzo[d]oxazol-2-yl)-6,7-dihydro-1H-imidazo[4,5-c]pyridin-5(4H)-yl)(4-(difluoromethyl)oxazol-5-yl)methanone], not above 500 nM.
Consider `O=C(c1ccnn1C(F)F)N1CCc2[nH]cnc2[C@H]1c1nc2cc(F)cc(F)c2o1` [Example 609], for which the half-maximal activity concentration (AC50) is 500 to 1000 nM.
Turning to `Cc1cccc2nc([C@@H]3c4nc[nH]c4CCN3C(=O)c3cnco3)oc12` [Example 611, (S)-(4-(7-methylbenzo[d]oxazol-2-yl)-6,7-dihydro-1H-imidazo[4,5-c]pyridin-5(4H)-yl)(oxazol-5-yl)methanone], the AC50 fell in the range of 500 to 1000 nM.
With `Cc1cccc2nc([C@H]3c4nc[nH]c4CCN3C(=O)c3cnco3)oc12` [Example 612, (R)-(4-(7-methylbenzo[d]oxazol-2-yl)-6,7-dihydro-1H-imidazo[4,5-c]pyridin-5(4H)-yl)(oxazol-5-yl)methanone], the AC50 fell in the range of 1000 to 5000 nM.
Under `Cc1cccc2nc([C@@H]3c4nc[nH]c4CCN3C(=O)c3nc(C(F)F)nn3C)oc12` [Example 613, (S)-(3-(difluoromethyl)-1-methyl-1H-1,2,4-triazol-5-yl)(4-(7-methylbenzo[d]oxazol-2-yl)-6,7-dihydro-1H-imidazo[4,5-c]pyridin-5(4H)-yl)methanone] stands not above 500 nM; under `Cc1cccc2nc([C@H]3c4nc[nH]c4CCN3C(=O)c3nc(C(F)F)nn3C)oc12` [Example 614, (R)-(3-(difluoromethyl)-1-methyl-1H-1,2,4-triazol-5-yl)(4-(7-methylbenzo[d]oxazol-2-yl)-6,7-dihydro-1H-imidazo[4,5-c]pyridin-5(4H)-yl)methanone], 1000 to 5000 nM; under `COc1ccc(-c2nc(C(F)F)c(C(=O)N3CCc4[nH]cnc4[C@@H]3c3nc4cccc(F)c4o3)o2)nc1` [Example 615, (R)-(4-(difluoromethyl)-2-(5-methoxypyridin-2-yl)oxazol-5-yl)(4-(7-fluorobenzo[d]oxazol-2-yl)-6,7-dihydro-1H-imidazo[4,5-c]pyridin-5(4H)-yl)methanone], not above 500 nM.
`COc1ccc(-c2nc(C(F)F)c(C(=O)N3CCc4[nH]cnc4[C@H]3c3nc4cccc(F)c4o3)o2)nc1` [Example 616, (S)-(4-(difluoromethyl)-2-(5-methoxypyridin-2-yl)oxazol-5-yl)(4-(7-fluorobenzo[d]oxazol-2-yl)-6,7-dihydro-1H-imidazo[4,5-c]pyridin-5(4H)-yl)methanone]: the AC50 is not above 500 nM.
Then `CN1CCN(c2nc(C(F)F)c(C(=O)N3CCc4[nH]cnc4[C@H]3c3nc4cccc(F)c4o3)o2)CC1` [Example 617, (S)-(4-(difluoromethyl)-2-(4-methylpiperazin-1-yl)oxazol-5-yl)(4-(7-fluorobenzo[d]oxazol-2-yl)-6,7-dihydro-1H-imidazo[4,5-c]pyridin-5(4H)-yl)methanone], with not above 500 nM; and `CN1CCN(c2nc(C(F)F)c(C(=O)N3CCc4[nH]cnc4[C@@H]3c3nc4cccc(F)c4o3)o2)CC1` [Example 618, (R)-(4-(difluoromethyl)-2-(4-methylpiperazin-1-yl)oxazol-5-yl)(4-(7-fluorobenzo[d]oxazol-2-yl)-6,7-dihydro-1H-imidazo[4,5-c]pyridin-5(4H)-yl)methanone], with 500 to 1000 nM; and `CC(F)(F)c1ncoc1C(=O)N1CCc2[nH]cnc2[C@@H]1c1nc2cccc(F)c2o1` [Example 619, (R)-(4-(1,1-difluoroethyl)oxazol-5-yl)(4-(7-fluorobenzo[d]oxazol-2-yl)-6,7-dihydro-1H-imidazo[4,5-c]pyridin-5(4H)-yl)methanone], with 1000 to 5000 nM.
For `CC(F)(F)c1ncoc1C(=O)N1CCc2[nH]cnc2[C@H]1c1nc2cccc(F)c2o1` [Example 620, (S)-(4-(1,1-difluoroethyl)oxazol-5-yl)(4-(7-fluorobenzo[d]oxazol-2-yl)-6,7-dihydro-1H-imidazo[4,5-c]pyridin-5(4H)-yl)methanone], the half-maximal activity concentration (AC50) was not above 500 nM.
Then `COc1cccc2oc([C@@H]3c4nc[nH]c4CCN3C(=O)c3cnco3)nc12` [Example 621, (S)-(4-(4-methoxybenzo[d]oxazol-2-yl)-6,7-dihydro-1H-imidazo[4,5-c]pyridin-5(4H)-yl)(oxazol-5-yl)methanone], with 500 to 1000 nM; and `COc1cccc2oc([C@H]3c4nc[nH]c4CCN3C(=O)c3cnco3)nc12` [Example 622, (R)-(4-(4-methoxybenzo[d]oxazol-2-yl)-6,7-dihydro-1H-imidazo[4,5-c]pyridin-5(4H)-yl)(oxazol-5-yl)methanone], with 1000 to 5000 nM; and `COc1cccc2oc([C@H]3c4nc[nH]c4CCN3C(=O)c3nnc(-c4ccccn4)o3)nc12` [Example 623, (R)-(4-(4-methoxybenzo[d]oxazol-2-yl)-6,7-dihydro-1H-imidazo[4,5-c]pyridin-5(4H)-yl)(5-(pyridin-2-yl)-1,3,4-oxadiazol-2-yl)methanone], with 1000 to 5000 nM.
Turning to `COc1cccc2oc([C@@H]3c4nc[nH]c4CCN3C(=O)c3nnc(-c4ccccn4)o3)nc12` [Example 624, (S)-(4-(4-methoxybenzo[d]oxazol-2-yl)-6,7-dihydro-1H-imidazo[4,5-c]pyridin-5(4H)-yl)(5-(pyridin-2-yl)-1,3,4-oxadiazol-2-yl)methanone], the AC50 was not above 500 nM.
Turning to `COc1cccc2oc([C@H]3c4nc[nH]c4CCN3C(=O)c3nnc(-c4cnn(C)c4)o3)nc12` [Example 625, (R)-(4-(4-methoxybenzo[d]oxazol-2-yl)-6,7-dihydro-1H-imidazo[4,5-c]pyridin-5(4H)-yl)(5-(1-methyl-1H-pyrazol-4-yl)-1,3,4-oxadiazol-2-yl)methanone], the AC50 is 1000 to 5000 nM.
With `COc1cccc2oc([C@@H]3c4nc[nH]c4CCN3C(=O)c3nnc(-c4cnn(C)c4)o3)nc12` [Example 626, (S)-(4-(4-methoxybenzo[d]oxazol-2-yl)-6,7-dihydro-1H-imidazo[4,5-c]pyridin-5(4H)-yl)(5-(1-methyl-1H-pyrazol-4-yl)-1,3,4-oxadiazol-2-yl)methanone], the AC50 is not above 500 nM.
Under `O=C(c1nnc(-c2cnccn2)o1)N1CCc2[nH]cnc2[C@@H]1c1nc2cc(F)ccc2o1` [Example 627, (R)-(4-(5-fluorobenzo[d]oxazol-2-yl)-6,7-dihydro-1H-imidazo[4,5-c]pyridin-5(4H)-yl)(5-(pyrazin-2-yl)-1,3,4-oxadiazol-2-yl)methanone] stands 1000 to 5000 nM; under `O=C(c1nnc(-c2cnccn2)o1)N1CCc2[nH]cnc2[C@H]1c1nc2cc(F)ccc2o1` [Example 628, (S)-(4-(5-fluorobenzo[d]oxazol-2-yl)-6,7-dihydro-1H-imidazo[4,5-c]pyridin-5(4H)-yl)(5-(pyrazin-2-yl)-1,3,4-oxadiazol-2-yl)methanone], 1000 to 5000 nM; under `O=C(c1nnc(-c2ccccn2)o1)N1CCc2[nH]cnc2[C@H]1c1nc2c(F)c(F)ccc2o1` [Example 629, (S)-(4-(4,5-difluorobenzo[d]oxazol-2-yl)-6,7-dihydro-1H-imidazo[4,5-c]pyridin-5(4H)-yl)(5-(pyridin-2-yl)-1,3,4-oxadiazol-2-yl)methanone], 500 to 1000 nM.
With `O=C(c1nnc(-c2ccccn2)o1)N1CCc2[nH]cnc2[C@@H]1c1nc2c(F)c(F)ccc2o1` [Example 630, (R)-(4-(4,5-difluorobenzo[d]oxazol-2-yl)-6,7-dihydro-1H-imidazo[4,5-c]pyridin-5(4H)-yl)(5-(pyridin-2-yl)-1,3,4-oxadiazol-2-yl)methanone], the AC50 fell in the range of 1000 to 5000 nM.
Then `O=C(c1oc(-c2ccc(F)cn2)nc1C(F)F)N1CCc2[nH]cnc2[C@@H]1c1nc2cccc(F)c2o1` [Example 631, (R)-(4-(difluoromethyl)-2-(5-fluoropyridin-2-yl)oxazol-5-yl)(4-(7-fluorobenzo[d]oxazol-2-yl)-6,7-dihydro-1H-imidazo[4,5-c]pyridin-5(4H)-yl)methanone], with not above 500 nM; and `O=C(c1oc(-c2ccc(F)cn2)nc1C(F)F)N1CCc2[nH]cnc2[C@H]1c1nc2cccc(F)c2o1` [Example 632, (S)-(4-(difluoromethyl)-2-(5-fluoropyridin-2-yl)oxazol-5-yl)(4-(7-fluorobenzo[d]oxazol-2-yl)-6,7-dihydro-1H-imidazo[4,5-c]pyridin-5(4H)-yl)methanone], with not above 500 nM.
